# Measurements from the supplement of paper PMC10307832.
# Columns and labels:
# Assay in all cases: relative viability (nuclei count vs DMSO), 5 days (fraction); higher = more cells survive
# [1] = system: NCI-H1355
# Summary of the method: (§1)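 Cells from lung cancer lines were seeded into 1536-well plates and, one day later, dosed by pin tool. Treatments were either a single drug or a fixed dose of an anchor drug with five library-drug doses (not always all listed) in √10 steps. After 5 days, nuclei were stained in a one-step fixation (final 0.05% Triton X-100, 1% formaldehyde, 1 ug/ml Hoechst) and counted on 4× images, and relative viability is the treated-to-vehicle nuclei ratio, as the median of duplicate plates.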
# [2] = system: SW 900
# Summary of the method: as §1
# [3] = system: RERF-LC-KJ
# Summary of the method: as §1
# [4] = system: NCI-H520
# Summary of the method: as §1
# [5] = system: NCI-H3122
# Summary of the method: as §1
# [6] = system: NCI-H2347
# Summary of the method: as §1
# [7] = system: LXF-289
# Summary of the method: as §1
# [8] = system: NCI-H1563
# Summary of the method: as §1
# [9] = system: NCI-H596
# Summary of the method: as §1
# [10] = system: SK-MES-1
# Summary of the method: as §1
smiles,measurement,setting,value
O=c1cc(N2CCOCC2)oc2c(-c3cccc4c3sc3ccccc34)cccc12 + COc1cc2c(Oc3ccc(NC(=O)C4(C(=O)Nc5ccc(F)cc5)CC4)cc3F)ccnc2cc1OCCCN1CCOCC1 [Foretinib] (partner 0.25 µM),relative viability,[1]; first compound 0.01 µM,0.962
same,relative viability,[1]; first compound 0.03162 µM,1.01
same,relative viability,[1]; first compound 0.1 µM,0.952
same,relative viability,[1]; first compound 0.3162 µM,0.986
same,relative viability,[1]; first compound 1 µM,0.917
same,relative viability,[2]; first compound 0.01 µM,0.859
same,relative viability,[2]; first compound 0.03162 µM,0.888
same,relative viability,[2]; first compound 0.1 µM,0.789
same,relative viability,[2]; first compound 0.3162 µM,0.798
same,relative viability,[2]; first compound 1 µM,0.818
same,relative viability,[3]; first compound 0.01 µM,0.831
same,relative viability,[3]; first compound 0.03162 µM,0.876
same,relative viability,[3]; first compound 0.1 µM,0.91
same,relative viability,[3]; first compound 0.3162 µM,0.852
same,relative viability,[3]; first compound 1 µM,0.846
same,relative viability,[4]; first compound 0.01 µM,0.896
same,relative viability,[4]; first compound 0.03162 µM,0.86
same,relative viability,[4]; first compound 0.1 µM,0.725
same,relative viability,[4]; first compound 0.3162 µM,0.774
same,relative viability,[4]; first compound 1 µM,0.734
same,relative viability,[5]; first compound 0.01 µM,0.953
same,relative viability,[5]; first compound 0.03162 µM,0.918
same,relative viability,[5]; first compound 0.1 µM,1
same,relative viability,[5]; first compound 0.3162 µM,0.932
same,relative viability,[5]; first compound 1 µM,0.954
same,relative viability,[6]; first compound 0.01 µM,0.963
same,relative viability,[6]; first compound 0.03162 µM,0.761
same,relative viability,[6]; first compound 0.1 µM,0.675
same,relative viability,[6]; first compound 0.3162 µM,0.855
same,relative viability,[6]; first compound 1 µM,1.05
same,relative viability,[7]; first compound 0.01 µM,0.969
same,relative viability,[7]; first compound 0.03162 µM,0.984
same,relative viability,[7]; first compound 0.1 µM,1
same,relative viability,[7]; first compound 0.3162 µM,0.97
same,relative viability,[7]; first compound 1 µM,0.965
same,relative viability,[8]; first compound 0.01 µM,0.913
same,relative viability,[8]; first compound 0.03162 µM,0.833
same,relative viability,[8]; first compound 0.1 µM,0.895
same,relative viability,[8]; first compound 0.3162 µM,0.901
same,relative viability,[8]; first compound 1 µM,0.888
same,relative viability,[9]; first compound 0.01 µM,0.838
same,relative viability,[9]; first compound 0.03162 µM,0.946
same,relative viability,[9]; first compound 0.1 µM,0.821
same,relative viability,[9]; first compound 0.3162 µM,0.96
same,relative viability,[9]; first compound 1 µM,0.918
same,relative viability,[10]; first compound 0.01 µM,1.13
same,relative viability,[10]; first compound 0.03162 µM,0.771
same,relative viability,[10]; first compound 0.1 µM,0.847
same,relative viability,[10]; first compound 0.3162 µM,0.968
same,relative viability,[10]; first compound 1 µM,0.91
